{"source": "patent US11130772B2", "about": "“CYP-eicosanoid derivatives” (MAX-DELBRUECK-CENTRUM FUER MOLEKULARE MEDIZIN, priority 2014, dated 2021)", "test_system": "spontaneously beating neonatal rat cardiomyocytes (NRCMs)", "experiment": "Chronotropic effect on spontaneously beating neonatal rat cardiomyocytes (in vitro cardiac arrhythmia model)", "assay_type": "cell-based, neonatal Wistar rats", "details": "30 nM final concentration, 5 min incubation", "source_text": "The activity of the n-3 PUFA analogues according to the invention can, for example, be determined in appropriate in vitro and/or in vivo assays. For instance, the biological activity of the n-3 PUFA analogues according to the present invention may be determined using the established cell model of Kang and Leaf (Proc Natl Acad Sci USA, 1994. 91(21): p. 9886-90.) known to those skilled in the art.\nIn order to measure the biological activities of the novel compounds an established cell model was used (Kang, J. X. and A. Leaf, Effects of long-chain polyunsaturated fatty acids on the contraction of neonatal rat cardiac myocytes. Proc Natl Acad Sci USA, 1994. 91(21): p. 9886-90.). The spontaneously beating neonatal rat cardiomyocytes (NRCMs) are a model system to investigate anti-arrhythmic effects of test-compounds.\nIsolation and cultivation of NRCMs were performed as described previously (Wallukat, G; Wollenberger, A. Biomed Biochim Acta. 1987;78:634-639; Wallukat G, Homuth V, Fischer T, Lindschau C, Horstkamp B, Jupner A, Baur E, Nissen E, Vetter K, Neichel D, Dudenhausen J W, Haller H, Luft F C. J Clin Invest. 1999; 103: 945-952). Briefly, neonatal Wistar rats (1-2 days old) were killed in conformity to the recommendations of the Community of Health Service of the City of Berlin and the cardiomyocytes were dissociated from the minced ventricles with a 0.2% solution of crude trypsin. The isolated cells were then cultured as monolayers on the bottom (12.5 cm^2) of Falcon flasks in 2.5 ml of Halle SM 20-I medium equilibrated with humidified air. The medium contained 10% heat-inactivated FCS and 2 μmol/l fluoro-deoxyuridine (Serva, Heidelberg, Germany), the latter to prevent proliferation of non-muscle cells. The NRCMs (2.4×10^6 cells/flask) were cultured at 37° C. in an incubator. After 5 to 7 days, the NRCMs formed spontaneously beating cell clusters. […] On the day of the experiment, the culture medium was replaced by 2.0 ml fresh serum-containing medium. Two hours later, the beating rates were monitored at 37° C. using an inverted microscope equipped with a heating stage. To determine the basal rate, 6 to 8 individual clusters were selected and the number of contractions was counted for 15 sec. After that, the compound to be tested was added to the culture and the beating rate of the same clusters was monitored 5 min later again. Based on the difference between the basal and compound-induced beating rate of the individual clusters, the chronotropic effects (Δ beats/min) were calculated and are given as mean±SE values. N refers to the number of clusters monitored which originated, in general, from at least three independent NRCM cultures.\nAll compounds tested were added to the NRCMs at a final concentration of 30 nM and the measurement was performed after 5 min of incubation; except EPA that was used at a final concentration of 3.3 μM and the effect was monitored after 30 min of incubation.", "note": "“Also recorded” adds a separate entry of the source."}
{"compound": "CNC(=O)C(=O)NCCCC/C=C\\CCCCCCCCCC(=O)NS(=O)(=O)c1ccccc1", "note": "[C50, N^1-(16-phenylsulfonamido-16-oxohexadec-5(Z)-en-1-yl)-N^2-methyloxalamide]", "values": [{"measurement": "chronotropic effect on spontaneous beating rate (in words)", "value": "negative chronotropic effect"}]}
{"compound": "CNC(=O)C(=O)NCCCc1ccccc1CCCCCCP(=O)([O-])[O-].[Na+].[Na+]", "note": "[C48]", "values": [{"measurement": "chronotropic effect on spontaneous beating rate (in words)", "value": "negative chronotropic effects"}]}
{"compound": "CNC(=O)C(=O)NCCCC/C=C\\CCCCCCCCCC1=NOS(=O)N1", "note": "(stereo not shown) [C38, N^1-methyl-N^2-(15-(2-oxido-3H-1,2,3,5-oxathiadiazol-4-yl)pentadec-5(Z)-en-1-yl)oxalamide]", "values": [{"measurement": "chronotropic effect on spontaneous beating rate (in words)", "value": "negative chronotropic effect"}]}
{"compound": "CNC(=O)C(=O)NCCCC/C=C\\CCCCCCCCCSc1ccccc1O", "note": "[C44, (Z)—N^1-(15-((2-hydroxyphenyl)thio)pentadec-5-en-1-yl)-N^2-methyloxalamide]", "values": [{"measurement": "chronotropic effect on spontaneous beating rate (in words)", "value": "lowest activity; also recorded: negative chronotropic effect"}, {"measurement": "chronotropic effect (Δ beats/min), mean±SE", "setting": "n=12 clusters", "value": "−7.5±4.5", "unit": "beats/min"}]}
{"compound": "CCC1OC1C/C=C\\C/C=C\\C/C=C\\C/C=C\\CCCC(=O)O", "note": "(stereo not shown) [17,18-EEQ, 17,18-epoxyeicosatetraenoic acid, reference compound]", "values": [{"measurement": "chronotropic effect on spontaneous beating rate (in words)", "value": "negative chronotropic effect"}]}
{"compound": "CNC(=O)C(=O)NCCCC/C=C\\CCCCCCCCCS(=O)(=O)[O-].[Na+]", "note": "[C42, Sodium 15-(2-(methylamino)-2-oxoacetamido)pentadec-10(Z)-en-1-sulfonate]", "values": [{"measurement": "chronotropic effect on spontaneous beating rate (in words)", "value": "negative chronotropic effect"}]}
{"compound": "N^1-(15-((2-acetamidobenzo[d]thiazol-7-yl)oxy)pentadec-5(Z)-en-1-yl)-N^2-methyloxalamide [C43]", "values": [{"measurement": "chronotropic effect on spontaneous beating rate (in words)", "value": "negative chronotropic effect"}]}
{"compound": "CNC(=O)C(=O)NCCCCc1ccccc1CCCCCCCCCP(=O)([O-])[O-].[Na+].[Na+]", "note": "[C49]", "values": [{"measurement": "chronotropic effect on spontaneous beating rate (in words)", "value": "negative chronotropic effects"}]}
{"compound": "CNC(=O)C(=O)NCCCC/C=C\\CCCCCCCCCP(=O)([O-])[O-].[Na+].[Na+]", "note": "[C41, disodium 15-(2-(methylamino)-2-oxoacetamido)pentadec-10(Z)-enylphosphonate]", "values": [{"measurement": "chronotropic effect on spontaneous beating rate (in words)", "value": "negative chronotropic effect"}]}
